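Five concentrations, 48 hours, 96-well plates. At the GI50, growth is halved.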 Calls of active or inactive are those of the source. No stated cut-off is given here; in the data, active = GI50 up to about 1.1 µM and inactive = higher. Square brackets hold non-standard residues; d marks the D form. Peptide text beside a SMILES is read from it. * marks the point of attachment. X26 = COC1=CC(=O)N(C(=O)[C@@H](O*)C(C)C)[C@H]1Cc1ccccc1; Bn2Val = CC(C)[C@@H](C(=O)*)N(Cc1ccccc1)Cc1ccccc1; NMeV = CN[C@H](C(=O)O)C(C)C; dNMeA = CN[C@H](C)C(=O)O
Experiments:
Assay in all cases: NCI anticancer screen, dose series, 48 h
ACHN = tested on: ACHN
UACC-62 = tested on: UACC-62
HOP-92 = tested on: HOP-92
MDA-N = tested on: MDA-N
786-0 = tested on: 786-0
MOLT-4 = tested on: MOLT-4
SN12C = tested on: SN12C
OVCAR-5 = tested on: OVCAR-5
HCT-116 = tested on: HCT-116
HT-29 = tested on: HT-29
RPMI-8226 = tested on: RPMI-8226
SK-MEL-2 = tested on: SK-MEL-2
T47D = tested on: T47D
NCI-H460 = tested on: NCI-H460
SK-OV-3 = tested on: SK-OV-3
PC-3 = tested on: PC-3
COLO 205 = tested on: COLO 205
UACC-257 = tested on: UACC-257
OVCAR-3 = tested on: OVCAR-3
SF-539 = tested on: SF-539

**Q.** Which GI50 (ACHN) does the source give for `Nc1nc(NCCCO)cc(=O)[nH]1` here?
**A.** > 100 µM (inactive)

**Q.** And the GI50 (UACC-62)?
**A.** > 100 µM (inactive)

**Q.** What about the GI50 (HOP-92) of the same molecule?
**A.** > 100 µM (inactive)

**Q.** And the GI50 (MDA-N)?
**A.** > 100 µM (inactive)

**Q.** And the GI50 (786-0)?
**A.** > 100 µM (inactive)

**Q.** And the GI50 (MOLT-4)?
**A.** > 100 µM (inactive)

**Q.** What about the GI50 (SN12C) of the same molecule?
**A.** > 100 µM (inactive)

**Q.** And the GI50 (OVCAR-5)?
**A.** > 100 µM (inactive)

**Q.** And the GI50 (HCT-116)?
**A.** > 100 µM (inactive)

**Q.** What about the GI50 (HT-29) of the same molecule?
**A.** > 100 µM (inactive)

**Q.** What about the GI50 (RPMI-8226) of the same molecule?
**A.** > 100 µM (inactive)

**Q.** What about the GI50 (SK-MEL-2) of the same molecule?
**A.** > 100 µM (inactive)

**Q.** What about the GI50 (T47D) of the same molecule?
**A.** > 100 µM (inactive)

**Q.** And the GI50 (NCI-H460)?
**A.** > 100 µM (inactive)

**Q.** And the GI50 (SK-OV-3)?
**A.** > 100 µM (inactive)

**Q.** And the GI50 (PC-3)?
**A.** > 100 µM (inactive)

**Q.** And the GI50 (COLO 205)?
**A.** > 100 µM (inactive)

**Q.** What about the GI50 (UACC-257) of the same molecule?
**A.** > 100 µM (inactive)

**Q.** What about the GI50 (OVCAR-3) of the same molecule?
**A.** > 100 µM (inactive)

**Q.** For `O=[N+]([O-])/C=C\c1c[nH]c2ccc(OCc3ccccc3)cc12`, which GI50 (ACHN) is on record?
**A.** 2.13 µM (inactive)

**Q.** And the GI50 (UACC-62)?
**A.** 2.9 µM (inactive)

**Q.** What about the GI50 (HOP-92) of the same molecule?
**A.** 3.21 µM (inactive)

**Q.** What about the GI50 (MDA-N) of the same molecule?
**A.** 2.23 µM (inactive)

**Q.** What about the GI50 (786-0) of the same molecule?
**A.** 1.93 µM (inactive)

**Q.** And the GI50 (MOLT-4)?
**A.** 3.6 µM (inactive)

**Q.** And the GI50 (SN12C)?
**A.** 2.24 µM (inactive)

**Q.** What about the GI50 (OVCAR-5) of the same molecule?
**A.** 11.1 µM (inactive)

**Q.** And the GI50 (HCT-116)?
**A.** 1.73 µM (inactive)

**Q.** What about the GI50 (RPMI-8226) of the same molecule?
**A.** 2.08 µM (inactive)

**Q.** What about the GI50 (SK-MEL-2) of the same molecule?
**A.** 11.5 µM (inactive)

**Q.** What about the GI50 (T47D) of the same molecule?
**A.** 2.64 µM (inactive)

**Q.** What about the GI50 (NCI-H460) of the same molecule?
**A.** 4.43 µM (inactive)

**Q.** What about the GI50 (SK-OV-3) of the same molecule?
**A.** 17.5 µM (inactive)

**Q.** And the GI50 (PC-3)?
**A.** 7.33 µM (inactive)

**Q.** And the GI50 (COLO 205)?
**A.** 3.85 µM (inactive)

**Q.** What about the GI50 (SF-539) of the same molecule?
**A.** 10.4 µM (inactive)

**Q.** What about the GI50 (UACC-257) of the same molecule?
**A.** 1.64 µM (inactive)

**Q.** And the GI50 (OVCAR-3)?
**A.** 10.4 µM (inactive)

**Q.** Which results are given for `C[C@]12CC(c3ccccc3O1)C(C#N)C(=O)N2` (some centres undefined)?
**A.** GI50 (ACHN): > 100 µM (inactive); GI50 (UACC-62): > 100 µM (inactive); GI50 (HOP-92): > 100 µM (inactive); GI50 (MDA-N): > 100 µM (inactive); GI50 (786-0): > 100 µM (inactive); GI50 (MOLT-4): > 100 µM (inactive); GI50 (SN12C): > 100 µM (inactive); GI50 (OVCAR-5): > 100 µM (inactive); GI50 (HCT-116): > 100 µM (inactive); GI50 (HT-29): > 100 µM (inactive); GI50 (RPMI-8226): > 100 µM (inactive); GI50 (SK-MEL-2): > 100 µM (inactive); GI50 (T47D): > 100 µM (inactive); GI50 (NCI-H460): > 100 µM (inactive); GI50 (SK-OV-3): > 100 µM (inactive); GI50 (PC-3): > 100 µM (inactive); GI50 (COLO 205): > 100 µM (inactive); GI50 (UACC-257): > 100 µM (inactive); GI50 (OVCAR-3): > 100 µM (inactive)

**Q.** What does the source list for `O=C([O-])C1([n+]2c(-c3ccccc3)cc(-c3ccccc3)cc2-c2ccccc2)CC1`?
**A.** GI50 (ACHN): > 100 µM (inactive); GI50 (UACC-62): 21.5 µM (inactive); GI50 (HOP-92): 19.8 µM (inactive); GI50 (MDA-N): 53.8 µM (inactive); GI50 (786-0): 57.1 µM (inactive); GI50 (MOLT-4): 65.6 µM (inactive); GI50 (SN12C): > 100 µM (inactive); GI50 (OVCAR-5): > 100 µM (inactive); GI50 (HCT-116): 41.1 µM (inactive); GI50 (HT-29): 48.8 µM (inactive); GI50 (RPMI-8226): 32.2 µM (inactive); GI50 (T47D): 16 µM (inactive); GI50 (NCI-H460): 74.5 µM (inactive); GI50 (PC-3): 80.4 µM (inactive); GI50 (SF-539): > 100 µM (inactive); GI50 (UACC-257): 25.4 µM (inactive); GI50 (OVCAR-3): 38.6 µM (inactive)

**Q.** With `O=c1[nH]c2c(C(F)(F)F)c(Cl)c(-c3ccccc3)nc2o1` as the molecule, how does the GI50 (ACHN) read?
**A.** 65.5 µM (inactive)

**Q.** And the GI50 (UACC-62)?
**A.** 75.5 µM (inactive)

**Q.** What about the GI50 (HOP-92) of the same molecule?
**A.** 9.33 µM (inactive)

**Q.** What about the GI50 (MDA-N) of the same molecule?
**A.** 14.8 µM (inactive)

**Q.** What about the GI50 (786-0) of the same molecule?
**A.** 24.4 µM (inactive)

**Q.** What about the GI50 (MOLT-4) of the same molecule?
**A.** 13.7 µM (inactive)

**Q.** And the GI50 (SN12C)?
**A.** 10.9 µM (inactive)

**Q.** What about the GI50 (OVCAR-5) of the same molecule?
**A.** 11.8 µM (inactive)

**Q.** What about the GI50 (HCT-116) of the same molecule?
**A.** 16.1 µM (inactive)

**Q.** What about the GI50 (HT-29) of the same molecule?
**A.** 23.3 µM (inactive)

**Q.** What about the GI50 (SK-MEL-2) of the same molecule?
**A.** 18.5 µM (inactive)

**Q.** And the GI50 (T47D)?
**A.** 20.2 µM (inactive)

**Q.** And the GI50 (NCI-H460)?
**A.** 23.9 µM (inactive)

**Q.** And the GI50 (SK-OV-3)?
**A.** 23.6 µM (inactive)

**Q.** What about the GI50 (PC-3) of the same molecule?
**A.** 23.2 µM (inactive)

**Q.** And the GI50 (COLO 205)?
**A.** 14.9 µM (inactive)

**Q.** And the GI50 (UACC-257)?
**A.** 14.1 µM (inactive)

**Q.** What about the GI50 (OVCAR-3) of the same molecule?
**A.** 17.3 µM (inactive)

**Q.** What does the source list for `CCN1CCN=C2c3cc(OC)ccc3Nc3c([N+](=O)[O-])ccc1c32`?
**A.** GI50 (UACC-62): 1.39 µM (inactive); GI50 (HOP-92): 0.622 µM (active); GI50 (MDA-N): 0.839 µM (active); GI50 (786-0): 0.512 µM (active); GI50 (MOLT-4): 0.279 µM (active); GI50 (SN12C): 0.796 µM (active); GI50 (HT-29): 0.705 µM (active); GI50 (RPMI-8226): 0.552 µM (active); GI50 (T47D): 3.32 µM (inactive); GI50 (SK-OV-3): 2.43 µM (inactive); GI50 (PC-3): 1 µM (active); GI50 (COLO 205): 0.668 µM (active); GI50 (UACC-257): 1.83 µM (inactive)

**Q.** How did the GI50 (ACHN) turn out when `COC1=CC(=O)N(C(=O)[C@@H](OC(=O)[C@@H](C)N(C)C(=O)[C@@H]2CCCN2C(=O)[C@H](C(C)C)N(C)C(=O)[C@@H](NC(=O)[C@H](C(C)C)N(Cc2ccccc2)Cc2ccccc2)C(C)C)C(C)C)[C@H]1Cc1ccccc1` (Bn2Val-V[NMeV]P[dNMeA]-X26) was run?
**A.** > 100 µM (inactive)

**Q.** And the GI50 (UACC-62)?
**A.** > 60.7 µM (inactive)

**Q.** What about the GI50 (HOP-92) of the same molecule?
**A.** > 49.3 µM (inactive)

**Q.** What about the GI50 (MDA-N) of the same molecule?
**A.** > 100 µM (inactive)

**Q.** And the GI50 (786-0)?
**A.** 98.2 µM (inactive)

**Q.** And the GI50 (SN12C)?
**A.** > 100 µM (inactive)

**Q.** What about the GI50 (OVCAR-5) of the same molecule?
**A.** > 100 µM (inactive)

**Q.** And the GI50 (HCT-116)?
**A.** 4.32 µM (inactive)

**Q.** What about the GI50 (HT-29) of the same molecule?
**A.** > 100 µM (inactive)

**Q.** What about the GI50 (SK-MEL-2) of the same molecule?
**A.** > 50.7 µM (inactive)

**Q.** And the GI50 (T47D)?
**A.** > 100 µM (inactive)

**Q.** And the GI50 (NCI-H460)?
**A.** > 100 µM (inactive)

**Q.** And the GI50 (SK-OV-3)?
**A.** > 100 µM (inactive)

**Q.** What about the GI50 (PC-3) of the same molecule?
**A.** 6.3 µM (inactive)

**Q.** What about the GI50 (COLO 205) of the same molecule?
**A.** > 100 µM (inactive)

**Q.** And the GI50 (SF-539)?
**A.** > 37.2 µM (inactive)

**Q.** What about the GI50 (UACC-257) of the same molecule?
**A.** > 26.1 µM (inactive)

**Q.** What about the GI50 (OVCAR-3) of the same molecule?
**A.** > 100 µM (inactive)

**Q.** Which results are given for `Cc1[nH]c(=O)[nH]c(=O)c1N(CCF)CCCl` [FLUORODOPAN]?
**A.** GI50 (ACHN): 190 µM (inactive); GI50 (UACC-62): 283 µM (inactive); GI50 (HOP-92): 109 µM (inactive); GI50 (MDA-N): 409 µM (inactive); GI50 (786-0): 451 µM (inactive); GI50 (OVCAR-5): 483 µM (inactive); GI50 (HCT-116): 439 µM (inactive); GI50 (HT-29): 442 µM (inactive); GI50 (SK-MEL-2): 432 µM (inactive); GI50 (T47D): 292 µM (inactive); GI50 (SK-OV-3): 536 µM (inactive); GI50 (PC-3): 363 µM (inactive); GI50 (COLO 205): 394 µM (inactive); GI50 (SF-539): 199 µM (inactive); GI50 (UACC-257): 443 µM (inactive); GI50 (OVCAR-3): 442 µM (inactive)

Source: ChEMBL document CHEMBL1201862, “PubChem BioAssay data set” (2004)
